One series deals with T1, p38 MAP kinase (Homo sapiens, UniProt Q16539).
T1 construct: made in house; host or cells: E. coli (co-expressed with SEK-1 and MEKK to obtain the phosphorylated form)
Nature of the series: in vitro inhibition of p-38 (MAP) kinase: transfer of γ-phosphate from γ-33P-ATP to Myelin Basic Protein. The series is classed as biochemical. The conditions noted are these: phosphorylated recombinant p38 MAP kinase, MBP substrate, 30° C., read-out: IC50 (p-38 inhibitory activity, concentration causing 50% inhibition of the p-38 enzyme). Here is the method: This example illustrate an assay protocol for determining in vitro inhibition of p-38 (MAP) Kinase.
The p-38 MAP kinase inhibitory activity of compounds of this invention in vitro was determined by measuring the transfer of the γ-phosphate from γ-^33P-ATP by p-38 kinase to Myelin Basic Protein (MBP), using the a minor modification of the method described in Ahn, N. G.; et al. J. Biol. Chem. Vol. 266(7), 4220-4227, (1991).
The phosphorylated form of the recombinant p38 MAP kinase was expressed with SEK-1 and MEKK in E. Coli and then purified by affinity chromatography using a Nickel column.
The phosphorylated p38 MAP kinase was diluted in kinase buffer (20 mM 3-(N-morpholino)propanesulfonic acid, pH 7.2, 25 mM β-glycerol phosphate, 5 mM ethylene glycol-bis(beta-aminoethyl ether)-N,N,N′,N′-tetraacetic acid, 1 mM sodium vanadate, 1 mM dithiothreitol, 40 mM magnesium chloride). Test compound dissolved in DMSO or only DMSO (control) was added and the samples were incubated for 10 min at 30° C. The kinase reaction was initiated by the addition of a substrate cocktail containing MBP and γ-^33P-ATP. After incubating for an additional 20 min at 30° C., the reaction was terminated by adding 0.75% phosphoric acid. The phosphorylated MBP was then separated from the residual γ-^33P-ATP using a phosphocellulose membrane (Millipore, Bedford, Mass.) and quantitated using a scintillation counter (Packard, Meriden, Conn.).
Compounds of the invention were active in this assay. The p-38 inhibitory activities (expressed as IC50 , the concentration causing 50% inhibition of the p-38 enzyme being assayed) of some compounds of the invention are: […]

This passage reports melting point and IC50 results from patent US6518276B2, “7-oxo-pyridopyrimidines (II)” (Syntex (U.S.A.) LLC, priority 2000, dated 2003).

Structures can show the parent of a compound that is named as a salt.

T1 sequence (Q16539 whole entry): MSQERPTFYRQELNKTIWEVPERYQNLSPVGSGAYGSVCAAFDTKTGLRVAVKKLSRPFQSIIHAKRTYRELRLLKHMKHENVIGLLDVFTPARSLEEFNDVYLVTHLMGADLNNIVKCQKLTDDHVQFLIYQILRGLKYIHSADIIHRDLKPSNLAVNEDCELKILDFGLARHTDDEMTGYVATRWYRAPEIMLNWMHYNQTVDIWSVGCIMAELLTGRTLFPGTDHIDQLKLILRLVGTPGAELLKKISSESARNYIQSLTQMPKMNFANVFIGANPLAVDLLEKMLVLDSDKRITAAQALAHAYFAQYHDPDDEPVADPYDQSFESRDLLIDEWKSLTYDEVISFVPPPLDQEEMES

`CN1CCC(CNc2ncc3cc(-c4ccccc4Cl)c(=O)[nH]c3n2)CC1.Cl` returned a melting point of 213 to 220 °C.

The compound `C[C@@H](Nc1ncc2cc(-c3ccccc3Cl)c(=O)n(-c3ccc(F)cc3)c2n1)C(C)(C)O` [Cpd 6] displayed a melting point of 206.8 to 207.5 °C.

The compound `CC(Nc1ncc2cc(-c3ccccc3Cl)c(=O)n(C)c2n1)C(C)S(C)(=O)=O.Cl` (stereo not shown) gave a melting point of 142.1 to 144.3 °C.

With `Nn1c(=O)c(-c2ccccc2Cl)cc2cnc(NC3CCCC3)nc21` [Cpd 11], the melting point fell in the range of 147 to 154 °C. In addition, on p38 MAP kinase, the IC50 turned out to be 24 nM.

`C[C@H](Nc1ncc2cc(-c3ccccc3Cl)c(=O)n(N)c2n1)C(C)(O)O.Cl`: the melting point is over 300 °C.

Compound `COC(=O)CN1CCC(CNc2ncc3cc(-c4ccccc4Cl)c(=O)[nH]c3n2)CC1.Cl` yielded a melting point of 220 to 221.1 °C.

Take `CC(C)(CO)Nc1ncc2cc(-c3ccccc3Cl)c(=O)n(N)c2n1` [Cpd 13]: the IC50 at p38 MAP kinase was determined as 48 nM.

On to `Cn1c(=O)c(-c2ccccc2Cl)cc2cnc(NC(C)(C)CO)nc21` [Cpd 1], for which, on p38 MAP kinase, the IC50 came out at 52 nM.

Compound `Cn1c(=O)c(-c2ccccc2Cl)cc2cnc(N[C@H](CO)C(C)(C)C)nc21` [Cpd 18] came in with a melting point of 171.2 to 174 °C. Also, on p38 MAP kinase, the IC50 amounted to 92 nM.

`COCCC(C)Nc1ncc2cc(-c3ccccc3Cl)c(=O)n(C)c2n1.Cl` (stereo not shown) registered a melting point of 156.4 to 160.2 °C.

Take `CN(C)C(=O)CN1CCC(CNc2ncc3cc(-c4ccccc4Cl)c(=O)[nH]c3n2)CC1.Cl` [Cpd 4]: the melting point lay within 211.8 to 212.8 °C. Also, the IC50 at p38 MAP kinase amounted to 6270 nM.

`Cn1c(=O)c(-c2ccccc2Cl)cc2cnc(NC(C)(C)CO)nc21` (as salt: HCl) [Cpd 1]: the melting point was in the range of 228.6 to 228.9 °C.

In the case of `C[C@H](Nc1ncc2cc(-c3ccccc3Cl)c(=O)n(-c3ccc(F)cc3)c2n1)C(C)(C)O` [Cpd 7], the IC50 on p38 MAP kinase was 0.3 nM.

On to `C[C@H](Nc1ncc2cc(-c3ccccc3Cl)c(=O)n(C)c2n1)C(C)(C)O` [Cpd 8], for which, on p38 MAP kinase, the IC50 was found to be 31 nM.

On to `C[C@H](Nc1ncc2cc(-c3ccccc3Cl)c(=O)n(C)c2n1)C(C)(C)O` (as salt: HCl) [Cpd 8], for which the melting point lay within 178 to 181.5 °C.

`Cl.O=C(O)CN1CCC(CNc2ncc3cc(-c4ccccc4Cl)c(=O)[nH]c3n2)CC1` [Cpd 3] gave a melting point of 235.3 to 237.9 °C. Besides, the IC50 on p38 MAP kinase is 2200 nM.

For `C[C@H](Nc1ncc2cc(-c3ccccc3Cl)c(=O)n(C3CC3)c2n1)C(C)(C)O` [Cpd 12], the IC50 at p38 MAP kinase turned out to be 124 nM.

In turn, `C[C@H](Nc1ncc2cc(-c3ccccc3Cl)c(=O)n(-c3ccc(F)cc3)c2n1)C(C)(C)O` (as salt: HCl) [Cpd 7] returned a melting point of 142 to 149 °C.

`Cl.Cn1c(=O)c(-c2ccccc2Cl)cc2cnc(NC3CCC3)nc21` [Cpd 10] had a melting point of 205.3 to 210.9 °C. Besides, the IC50 on p38 MAP kinase was determined as 42 nM.

The compound `C[C@H](Nc1ncc2cc(-c3ccccc3Cl)c(=O)n(C)c2n1)C(C)(C)O.Cl` returned a melting point of 194 to 195.3 °C.
